Reference: BindingDB's records for doi:10.1016/s0960-894x(02)00627-3 (Keio University, 2002)

Tests used:
[1] = biological target: alpha-L-fucosidase (Bos taurus); assay: Inhibition of bovine kidney alpha-L-fucosidase
[2] = biological target: alpha-L-fucosidase (Bos taurus); assay: Binding affinity against alpha-L-fucosidase in bovine kidney was determined
[3] = biological target: alpha-L-fucosidase (Bos taurus); assay: as above; remark: listed apart in the source

Row | Ki [2] | SMILES | IC50 [1] | Ki [3]
1 | 69 nM | CC1CC(NCc2ccccc2)C(O)C(O)C1O [(1R,2S,3S)-4-Benzylamino-6-methyl-cyclohexane-1,2,3-triol] | 1000 nM | –
2 | – | CCCCNC1CC(C)C(O)C(O)C1O [(1R,2S,3S)-4-Butylamino-6-methyl-cyclohexane-1,2,3-triol] | 920 nM | 74 nM
3 | – | CCNC1CC(C)C(O)C(O)C1O [(1R,2S,3S)-4-Ethylamino-6-methyl-cyclohexane-1,2,3-triol] | 21000 nM | 180 nM
4 | – | CCCCCCCNC1CC(C)C(O)C(O)C1O [(1R,2S,3S)-4-Heptylamino-6-methyl-cyclohexane-1,2,3-triol] | 270 nM | 48 nM
5 | – | CCCCCCCCCNC1CC(C)C(O)C(O)C1O [(1S,2S,3R)-4-Methyl-6-nonylamino-cyclohexane-1,2,3-triol] | 240 nM | 110 nM
6 | – | CC1CC(NCCc2ccccc2)C(O)C(O)C1O [(1S,2S,3R)-4-Methyl-6-phenethylamino-cyclohexane-1,2,3-triol] | 240 nM | 32 nM
7 | – | CC1CC2N=C(NCc3ccccc3)OC2C(O)C1O [(6R,7S,7aS)-2-Benzylamino-5-methyl-3a,4,5,6,7,7a-hexahydro-benzooxazole-6,7-diol] | 72000 nM | –
8 | – | CCCCNC1=NC2CC(C)C(O)C(O)C2O1 [(6R,7S,7aS)-2-Butylamino-5-methyl-3a,4,5,6,7,7a-hexahydro-benzooxazole-6,7-diol] | 140000 nM | –
9 | – | CC1CC2N=C(Nc3ccccc3)OC2C(O)C1O [(6R,7S,7aS)-5-Methyl-2-phenylamino-3a,4,5,6,7,7a-hexahydro-benzooxazole-6,7-diol] | 7600 nM | –
